# Laboratory results taken from ChEMBL document CHEMBL1201862, “PubChem BioAssay data set” (2004).
#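 Briefly, cells in 96-well plates were exposed to five compound concentrations for 48 h, and endpoints were estimated by linear interpolation. Here, GI50 denotes the concentration required for 50% inhibition of growth.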 Active and inactive are the calls of the source. No stated cut-off is given here; in the data, active = GI50 up to about 1.1 µM and inactive = higher.
# Tests used:
# Test in all cases: growth of human tumour cells (NCI), 48 h
# ACHN = test system: ACHN
# BT-549 = test system: BT-549
# EKVX = test system: EKVX
# HT-29 = test system: HT-29
# Hs-578T = test system: Hs-578T
# IGROV-1 = test system: IGROV-1
# K562 = test system: K562
# M14 = test system: M14
# MDA-MB-231 = test system: MDA-MB-231
# MDA-MB-435 = test system: MDA-MB-435
# MDA-N = test system: MDA-N
# PC-3 = test system: PC-3
# RPMI-8226 = test system: RPMI-8226
# SK-MEL-2 = test system: SK-MEL-2
# SR = test system: SR
# U-251 = test system: U-251
# CCRF-CEM = test system: CCRF-CEM
# SK-MEL-5 = test system: SK-MEL-5
# NCI-H23 = test system: NCI-H23
Structure (SMILES),GI50 (ACHN),GI50 (BT-549),GI50 (EKVX),GI50 (HT-29),GI50 (Hs-578T),GI50 (IGROV-1),GI50 (K562),GI50 (M14),GI50 (MDA-MB-231),GI50 (MDA-MB-435),GI50 (MDA-N),GI50 (PC-3),GI50 (RPMI-8226),GI50 (SK-MEL-2),GI50 (SR),GI50 (U-251),GI50 (CCRF-CEM),GI50 (SK-MEL-5),GI50 (NCI-H23)
Nc1ccccc1C(=O)CC1OC(=O)c2ccccc21 (configuration not stated),> 100 µM (inactive),35 µM (inactive),34.9 µM (inactive),> 100 µM (inactive),46.8 µM (inactive),> 100 µM (inactive),> 100 µM (inactive),> 100 µM (inactive),> 100 µM (inactive),57.4 µM (inactive),78.7 µM (inactive),41.7 µM (inactive),38.1 µM (inactive),14 µM (inactive),46.5 µM (inactive),48.4 µM (inactive),–,–,–
N#CCCN(CCC#N)c1ccc(/C=C2\N=C(c3ccccc3)N(c3ccccn3)C2=O)cc1,> 100 µM (inactive),> 100 µM (inactive),> 100 µM (inactive),> 100 µM (inactive),> 100 µM (inactive),> 100 µM (inactive),> 100 µM (inactive),> 100 µM (inactive),> 100 µM (inactive),> 100 µM (inactive),> 100 µM (inactive),> 100 µM (inactive),> 100 µM (inactive),> 100 µM (inactive),–,> 100 µM (inactive),> 100 µM (inactive),> 100 µM (inactive),–
C=CCC(C(=O)Nc1cccc2nc[nH]c12)C(=O)OCC (configuration not stated),> 100 µM (inactive),> 100 µM (inactive),> 100 µM (inactive),> 100 µM (inactive),> 100 µM (inactive),> 100 µM (inactive),> 100 µM (inactive),> 100 µM (inactive),> 100 µM (inactive),> 100 µM (inactive),> 100 µM (inactive),> 100 µM (inactive),> 100 µM (inactive),> 100 µM (inactive),> 100 µM (inactive),> 100 µM (inactive),–,–,–
COc1ccccc1N1C(=O)/C(=C\c2ccccc2)SC1c1cc(OC)c(OC)c(OC)c1 (configuration not stated),74.1 µM (inactive),34.8 µM (inactive),37.8 µM (inactive),33.3 µM (inactive),33.7 µM (inactive),–,41.7 µM (inactive),35.1 µM (inactive),23.2 µM (inactive),17.9 µM (inactive),17.9 µM (inactive),21.4 µM (inactive),–,7.06 µM (inactive),33.7 µM (inactive),27.1 µM (inactive),–,27.6 µM (inactive),43.9 µM (inactive)
CC[N+](CC)(CCNCC(N)=O)CC(N)=O,> 10 µM (inactive),> 10 µM (inactive),> 10 µM (inactive),> 10 µM (inactive),> 10 µM (inactive),> 10 µM (inactive),> 10 µM (inactive),> 10 µM (inactive),> 10 µM (inactive),> 10 µM (inactive),> 10 µM (inactive),> 10 µM (inactive),> 10 µM (inactive),> 10 µM (inactive),–,> 10 µM (inactive),> 10 µM (inactive),> 10 µM (inactive),> 10 µM (inactive)
COc1cc2c(cc1OCCCCOc1cc3c(cc1OC)C(=O)N1CCC[C@H]1C(=O)N3)N=C[C@@H]1CCCN1C2=O,14.7 µM (inactive),4.44 µM (inactive),12.5 µM (inactive),16.6 µM (inactive),10.3 µM (inactive),8.57 µM (inactive),2.28 µM (inactive),12.9 µM (inactive),3.11 µM (inactive),4.2 µM (inactive),7.28 µM (inactive),6.05 µM (inactive),1.57 µM (inactive),5.57 µM (inactive),2.17 µM (inactive),3.93 µM (inactive),–,4 µM (inactive),12.8 µM (inactive)
Cc1cc2ccc(N)nc2nc1O,52 µM (inactive),> 100 µM (inactive),> 100 µM (inactive),> 100 µM (inactive),> 100 µM (inactive),> 100 µM (inactive),–,> 100 µM (inactive),> 100 µM (inactive),> 100 µM (inactive),> 100 µM (inactive),> 100 µM (inactive),> 100 µM (inactive),> 100 µM (inactive),> 100 µM (inactive),99.1 µM (inactive),–,> 100 µM (inactive),> 100 µM (inactive)
Cc1cccc(-c2cccc(COCc3cccc(-c4cccc(CO)n4)n3)n2)n1,> 50 µM (inactive),19.3 µM (inactive),35.5 µM (inactive),40.8 µM (inactive),35.7 µM (inactive),13 µM (inactive),> 50 µM (inactive),34.4 µM (inactive),24.2 µM (inactive),> 50 µM (inactive),> 50 µM (inactive),18.5 µM (inactive),33.3 µM (inactive),> 50 µM (inactive),> 50 µM (inactive),> 50 µM (inactive),–,11.7 µM (inactive),–
CC(=O)c1ccc(O)c(CN(C2CCCCC2)C2CCCCC2)c1O,> 100 µM (inactive),> 100 µM (inactive),> 100 µM (inactive),> 100 µM (inactive),> 100 µM (inactive),> 100 µM (inactive),> 100 µM (inactive),> 100 µM (inactive),> 100 µM (inactive),> 100 µM (inactive),> 100 µM (inactive),> 100 µM (inactive),> 100 µM (inactive),> 100 µM (inactive),–,> 100 µM (inactive),0.0611 µM (active),> 100 µM (inactive),> 100 µM (inactive)
Cc1ccc2c(n1)C(=O)c1ccccc1C2=O,31.8 µM (inactive),32.4 µM (inactive),27.5 µM (inactive),23.5 µM (inactive),72.3 µM (inactive),24.3 µM (inactive),30.2 µM (inactive),> 44.5 µM (inactive),23.3 µM (inactive),18.2 µM (inactive),> 45.6 µM (inactive),23.9 µM (inactive),32.6 µM (inactive),28.8 µM (inactive),–,27.8 µM (inactive),37.7 µM (inactive),6.84 µM (inactive),14.7 µM (inactive)
CNc1c2c(c3nc4ccccc4c4c3c1N=C4)NCCC2=O [PLAKINIDINE A],2.07 µM (inactive),7.74 µM (inactive),> 10 µM (inactive),2.23 µM (inactive),> 10 µM (inactive),4.42 µM (inactive),2.43 µM (inactive),> 10 µM (inactive),3.86 µM (inactive),5.79 µM (inactive),7.35 µM (inactive),3.46 µM (inactive),2.57 µM (inactive),> 10 µM (inactive),–,5.87 µM (inactive),1.9 µM (inactive),6.55 µM (inactive),7.13 µM (inactive)
Oc1[nH]c(Nc2ccc(Cl)c(C(F)(F)F)c2)nc2ncnc1-2,44.5 µM (inactive),36.6 µM (inactive),53.1 µM (inactive),33 µM (inactive),38.5 µM (inactive),35.7 µM (inactive),39.6 µM (inactive),57.4 µM (inactive),42.2 µM (inactive),50.2 µM (inactive),25.6 µM (inactive),33 µM (inactive),> 100 µM (inactive),25.5 µM (inactive),–,50.5 µM (inactive),21 µM (inactive),40.4 µM (inactive),73.8 µM (inactive)
